Source: patent publication US20260042731A1, “(2,4-DICHLOROPHENOXY)ACETIC ACID ANALOGS” (CORTEVA AGRISCIENCE LLC, priority 2022, published 2026)
Where two headings read alike, the source gives them in different places.

Legend:
[1] = test system: Abutilon theophrasti (ABUTH), velvetleaf; experiment: Postemergence herbicide evaluation, growth of Abutilon theophrasti (ABUTH); type: in vivo; conditions: for pest or weed control at 280 g/ha / pest or weed control at 560 g/ha: Abutilon theophrasti, post-emergence; for pest or weed control at 280 g/ha / AVE. ABUTH, percent reduction in plant size relative to the untreated control: 280 g ae/ha; for pest or weed control at 560 g/ha: 560 g ae/ha
[2] = test system: Amaranthus rudis (AMATA), tall water hemp; experiment: Postemergence herbicide evaluation, growth of Amaranthus rudis (AMATA); type: in vivo; conditions: for pest or weed control at 280 g/ha / pest or weed control at 560 g/ha: Amaranthus tuberculatus, post-emergence
[3] = test system: Ambrosia artemisiifolia (AMBEL), common ragweed; experiment: Postemergence herbicide evaluation, growth of Ambrosia artemisiifolia (AMBEL); type: in vivo; conditions: Ambrosia artemisiifolia, post-emergence; for pest or weed control at 280 g/ha: 280 g ae/ha; for pest or weed control at 560 g/ha: 560 g ae/ha
[4] = test system: weeds ABUTH, AMATA, AMBEL, CHEAL, ERICA; experiment: Postemergence herbicide evaluation, overall average % weed control (ABUTH, AMATA, AMBEL, CHEAL, ERICA); type: in vivo; conditions: post-emergence, read-out: Overall Ave % Weed Control; for pest or weed control at 280 g/ha: 280 g ae/ha; for pest or weed control at 560 g/ha: 560 g ae/ha
[5] = Volatility of compounds measured by thermogravimetric analysis (TGA); type: physicochemical
[6] = test system: weeds (ABUTH, AMATA, AMBEL, CHEAL, ERICA); experiment: Postemergence herbicide evaluation, overall average % weed control across ABUTH, AMATA, AMBEL, CHEAL, ERICA; type: in vivo; conditions: post-emergence, average over the five weeds, read-out: Overall Ave % Weed Control; for pest or weed control at 280 g/ha: 280 g ae/ha; for pest or weed control at 560 g/ha: 560 g ae/ha
[7] = test system: glyphosate resistant Conyza canadensis (L.) (ERICA), horseweed; experiment: Postemergence herbicide evaluation, growth of Conyza canadensis (ERICA); type: in vivo; conditions: Erigeron canadensis, post-emergence; for pest or weed control at 280 g/ha: 280 g ae/ha; for pest or weed control at 560 g/ha: 560 g ae/ha
[8] = test system: Chenopodium album (CHEAL), common lambsquarters; experiment: Postemergence herbicide evaluation, growth of Chenopodium album (CHEAL); type: in vivo; conditions: Chenopodium album, post-emergence; for pest or weed control at 280 g/ha: 280 g ae/ha; for pest or weed control at 560 g/ha: 560 g ae/ha
[9] = 168 h, 7 DAA, read-out: AVE. ABUTH, percent reduction in plant size relative to the untreated control
[10] = 336 h, 14 DAA, percent reduction in plant size relative to untreated control, read-out: AVE. ABUTH
[11] = 504 h, 21 DAA, percent reduction in plant size relative to untreated control, read-out: AVE. ABUTH
[12] = 168 h, 280 g ae/ha, 7 DAA, read-out: Ave. AMATA, percent reduction in plant size relative to the untreated control
[13] = 168 h, 7 DAA, read-out: AVE. AMBEL, percent reduction in plant size relative to the untreated control
[14] = 336 h, 14 DAA, percent reduction in plant size relative to untreated control, read-out: AVE. AMBEL
[15] = 504 h, 21 DAA, percent reduction in plant size relative to untreated control, read-out: AVE. AMBEL
[16] = 168 h, 7 DAA, read-out: Ave. ERICA, percent reduction in plant size relative to the untreated control
[17] = 336 h, 14 DAA, percent reduction in plant size relative to untreated control, read-out: Ave. ERICA
[18] = 504 h, 21 DAA, percent reduction in plant size relative to untreated control, read-out: Ave. ERICA
[19] = 168 h, 7 DAA, read-out: Ave. CHEAL, percent reduction in plant size relative to the untreated control
[20] = 336 h, 14 DAA, percent reduction in plant size relative to untreated control, read-out: Ave. CHEAL
[21] = 504 h, 21 DAA, percent reduction in plant size relative to untreated control, read-out: Ave. CHEAL
[22] = 504 h, 21 DAA, read-out: AVE. ABUTH, percent reduction in plant size relative to the untreated control
[23] = 336 h, 14 DAA, read-out: AVE. AMBEL, percent reduction in plant size relative to the untreated control
[24] = 504 h, 21 DAA, read-out: AVE. AMBEL, percent reduction in plant size relative to the untreated control
[25] = 336 h, 14 DAA, read-out: Ave. ERICA, percent reduction in plant size relative to the untreated control
[26] = 504 h, 21 DAA, read-out: Ave. ERICA, percent reduction in plant size relative to the untreated control
[27] = 336 h, 14 DAA, read-out: Ave. CHEAL, percent reduction in plant size relative to the untreated control
[28] = 504 h, 21 DAA, read-out: Ave. CHEAL, percent reduction in plant size relative to the untreated control

With `N/C(=N\OC(=O)COc1ccc(Cl)cc1Cl)c1ccco1` [Compound A5] the pest or weed control at 280 g/ha [1, 9] was 38%, the pest or weed control at 560 g/ha [1, 9] was 43% and the pest or weed control at 280 g/ha [1, 10] was 40%. It also gave a pest or weed control at 560 g/ha [1, 10] of 53%, a pest or weed control at 280 g/ha [1, 11] of 30% and a pest or weed control at 560 g/ha [1, 11] of 50%. It also gave a pest or weed control at 280 g/ha [2, 12] of 70%, a pest or weed control at 560 g/ha ([2]; 168 h, 560 g ae/ha, 7 DAA, read-out: Ave. AMATA, percent reduction in plant size relative to the untreated control) of 65% and a pest or weed control at 280 g/ha ([2]; 336 h, 280 g ae/ha, 14 DAA, percent reduction in plant size relative to untreated control, read-out: Ave. AMATA) of 73%. For the same molecule, the pest or weed control at 560 g/ha ([2]; 336 h, 560 g ae/ha, 14 DAA, percent reduction in plant size relative to untreated control, read-out: Ave. AMATA) was 68%, the pest or weed control at 280 g/ha ([2]; 504 h, 280 g ae/ha, 21 DAA, percent reduction in plant size relative to untreated control, read-out: Ave. AMATA) was 73% and the pest or weed control at 560 g/ha ([2]; 504 h, 560 g ae/ha, 21 DAA, percent reduction in plant size relative to untreated control, read-out: Ave. AMATA) was 70%. It also gave a pest or weed control at 280 g/ha [3, 13] of 60%, a pest or weed control at 560 g/ha [3, 13] of 60% and a pest or weed control at 280 g/ha [3, 14] of 78%. It also gave a pest or weed control at 560 g/ha [3, 14] of 85%, a pest or weed control at 280 g/ha [3, 15] of 78% and a pest or weed control at 560 g/ha [3, 15] of 85%. The pest or weed control at 280 g/ha ([4]; 168 h, 7 DAA) was 60%, the pest or weed control at 560 g/ha ([4]; 168 h, 7 DAA) was 61% and the “TGA Data (rate of weight loss, volatility)” value [5] was 1.2 µg/min. It also gave a pest or weed control at 280 g/ha ([6]; 336 h, 14 DAA) of 68%, a pest or weed control at 560 g/ha ([6]; 336 h, 14 DAA) of 71% and a pest or weed control at 280 g/ha ([6]; 504 h, 21 DAA) of 67%. The pest or weed control at 560 g/ha ([6]; 504 h, 21 DAA) was 72%, the pest or weed control at 280 g/ha [7, 16] was 70% and the pest or weed control at 560 g/ha [7, 16] was 73%. For the same molecule, the pest or weed control at 280 g/ha [7, 17] was 83%, the pest or weed control at 560 g/ha [7, 17] was 85% and the pest or weed control at 280 g/ha [7, 18] was 88%. The pest or weed control at 560 g/ha [7, 18] was 88%, the pest or weed control at 280 g/ha [8, 19] was 60% and the pest or weed control at 560 g/ha [8, 19] was 63%. The pest or weed control at 280 g/ha [8, 20] was 68%, the pest or weed control at 560 g/ha [8, 20] was 63% and the pest or weed control at 280 g/ha [8, 21] was 68%. The pest or weed control at 560 g/ha [8, 21] was 65%.

In the case of `O=C(COc1ccc(Cl)cc1Cl)Oc1cncnc1` [Compound E14, Pyrimidin-5-yl 2-(2,4-dichlorophenoxy)acetate], the “AVE. ABUTH, percent reduction in plant size relative to the untreated control” value ([1]; 7 DAA) is reported as 65%, the “AVE. ABUTH, percent reduction in plant size relative to the untreated control” value ([1]; 14 DAA) is reported as 65% and the pest or weed control at 560 g/ha [1, 9] is reported as 67.5%. The pest or weed control at 560 g/ha ([1]; 336 h, 14 DAA, read-out: AVE. ABUTH, percent reduction in plant size relative to the untreated control) was 77.5%, the pest or weed control at 280 g/ha [1, 22] was 97.5% and the pest or weed control at 560 g/ha [1, 22] was 97.5%. The “Ave. AMATA, percent reduction in plant size relative to the untreated control” value ([2]; 280 g ae/ha, 21 DAA) was 92.5%, the “Ave. AMATA, percent reduction in plant size relative to the untreated control” value ([2]; 560 g ae/ha, 7 DAA) was 98.5% and the pest or weed control at 280 g/ha [2, 12] was 89%. The pest or weed control at 280 g/ha ([2]; 336 h, 280 g ae/ha, 14 DAA, read-out: Ave. AMATA, percent reduction in plant size relative to the untreated control) was 90%, the pest or weed control at 560 g/ha ([2]; 336 h, 560 g ae/ha, 14 DAA, read-out: Ave. AMATA, percent reduction in plant size relative to the untreated control) was 97% and the pest or weed control at 560 g/ha ([2]; 504 h, 560 g ae/ha, 21 DAA, read-out: Ave. AMATA, percent reduction in plant size relative to the untreated control) was 100%. For the same molecule, the pest or weed control at 280 g/ha [3, 13] was 82.5%, the pest or weed control at 560 g/ha [3, 13] was 77.5% and the pest or weed control at 280 g/ha [3, 23] was 92.5%. It also gave a pest or weed control at 560 g/ha [3, 23] of 98.5%, a pest or weed control at 280 g/ha [3, 24] of 100% and a pest or weed control at 560 g/ha [3, 24] of 99.5%. It also gave a pest or weed control at 280 g/ha ([4]; 168 h, 7 DAA) of 78.3%, a pest or weed control at 560 g/ha ([4]; 168 h, 7 DAA) of 81.2% and a pest or weed control at 280 g/ha ([4]; 336 h, 14 DAA) of 86%. For the same molecule, the pest or weed control at 560 g/ha ([4]; 336 h, 14 DAA) was 92.7%, the pest or weed control at 280 g/ha ([4]; 504 h, 21 DAA) was 96.2% and the pest or weed control at 560 g/ha ([4]; 504 h, 21 DAA) was 99.2%. The “TGA Data (rate of weight loss, volatility)” value [5] was 0.0575 µg/min, the pest or weed control at 280 g/ha [7, 16] was 75% and the pest or weed control at 560 g/ha [7, 16] was 85%. It also gave a pest or weed control at 280 g/ha [7, 25] of 92.5%, a pest or weed control at 560 g/ha [7, 25] of 98% and a pest or weed control at 280 g/ha [7, 26] of 96%. The pest or weed control at 560 g/ha [7, 26] was 99%, the pest or weed control at 280 g/ha [8, 19] was 80% and the pest or weed control at 560 g/ha [8, 19] was 77.5%. The pest or weed control at 280 g/ha [8, 27] was 90%, the pest or weed control at 560 g/ha [8, 27] was 92.5% and the pest or weed control at 280 g/ha [8, 28] was 95%. The pest or weed control at 560 g/ha [8, 28] was 100%.
